Patent US9132098B2, “Stable nanocomposition comprising doxorubicin, process for the preparation thereof, its use and pharmaceutical compositions containing it” (BBS Nanotechnology Ltd., priority 2013, dated 2015)

Test system: SK-OV-3 human ovary adenocarcinoma cells
Assay: Comparative efficacy study in SK-OV-3 s.c. xenograft SCID mouse model of ovary cancer
Format: in vivo, SCID mice
Details: 78th day after tumor inoculation, total dose DOX 23, NP 17, NP-PEG 23 mg/kg
Method: Tumor was induced in mice by implanting SK-OV-3 human ovary adenocarcinoma cells s.c. in upper region of back of SCID mice and allowing the tumors to develop to appreciable size over 40 days (30 mm3). The comparative efficacy study of six i.v. injection (day 43, 50, 57, 65, 71 and 78) of 5% glucose, doxorubicin (DOX) 3.8 mg/kg, NP […] and NP-PEG 3.8 mg/kg) was evaluated over 104 days. In this table there are the tumor volume of mice on 78th day after tumor inoculation (data represent mean±SEM of five mice per_group) and body weight of mice on 78th day after tumor inoculation (Data represent mean±STDEV of five mice per group). The table below discloses the comparative efficacy study in SK-OV-3 s.c. xenograft SCID mouse model of ovary cancer.

SMILES: COc1cccc2c1C(=O)c1c(O)c3c(c(O)c1C2=O)C[C@@](O)(C(=O)CO)C[C@@H]3O[C@H]1C[C@H](N)[C@H](O)[C@H](C)O1 [DOX]
- Tumor volume (mm^3) (six i.v. injections (day 43-78), mean±SEM of five mice): 294.8 ± 216 mm^3
- Animal weight (six i.v. injections, mean±STDEV of five mice): 22.54 ± 0.77 g
